Data from ChEMBL document CHEMBL4014278, “Discovery of uracil-bearing DAPYs derivatives as novel HIV-1 NNRTIs via crystallographic overlay-based molecular hybridization” (Eur J Med Chem, 2017).
≈ marks a conversion by molar mass, not a printed value. Where a name gives a salt, the structure may show the parent alone.

Tests used:
[1] = test system: Human immunodeficiency virus 1; test: Antiviral activity against wild-type HIV1 3B infected in human MT4 cells assessed as protection against virus-induced cytopathic effect measured at 5 days post infection by MTT assay; type: functional, cell-based; conditions: Human immunodeficiency virus 1, 3B, MT4, 120 h
[2] = test system: Human immunodeficiency virus 1; test: Antiviral activity against HIV1 RES056 harboring K103N/Y181C double mutant infected in human MT4 cells assessed as protection against virus-induced cytopathic effect measured at 5 days post infection by MTT assay; type: functional, cell-based; conditions: Human immunodeficiency virus 1, RES056, MT4, 120 h
[3] = test system: Human immunodeficiency virus 2; test: Antiviral activity against HIV-2 ROD infected in human MT4 cells assessed as protection against virus-induced cytopathic effect measured at 5 days post infection by MTT assay; type: functional, cell-based; conditions: Human immunodeficiency virus 2, ISOLATE ROD, MT4, 120 h
[4] = Cytotoxicity against human MT4 cells after 5 days by MTT assay; type: cell-based
[5] = Selectivity index, ratio of CC50 for human MT4 cells to EC50 for wild-type HIV1 3B infected in human MT4 cells; type: toxicity, cell-based; conditions: read-out: Ratio CC50/EC50
[6] = test system: Human immunodeficiency virus 1; test: Antiviral activity against HIV1 NL4-3; type: functional; conditions: Human immunodeficiency virus 1, NL4-3
[7] = Solubility of the compound in phosphate buffer at pH 7.4 after 2 hrs by UV-HPLC method; type: physicochemical
[8] = test system: Human immunodeficiency virus 1; test: Antiviral activity against HIV1 harboring L100I mutant infected in human MT4 cells assessed as protection against virus-induced cytopathic effect measured at 5 days post infection by MTT assay; type: functional, cell-based; conditions: Human immunodeficiency virus 1, MT4, 120 h
[9] = test system: Human immunodeficiency virus 1; test: Antiviral activity against HIV1 harboring K103N mutant infected in human MT4 cells assessed as protection against virus-induced cytopathic effect measured at 5 days post infection by MTT assay; type: functional, cell-based; conditions: Human immunodeficiency virus 1, MT4, 120 h
[10] = test system: Human immunodeficiency virus 1; test: Antiviral activity against HIV1 harboring Y181C mutant infected in human MT4 cells assessed as protection against virus-induced cytopathic effect measured at 5 days post infection by MTT assay; type: functional, cell-based; conditions: Human immunodeficiency virus 1, MT4, 120 h
[11] = test system: Human immunodeficiency virus 1; test: Antiviral activity against HIV1 harboring Y188L mutant infected in human MT4 cells assessed as protection against virus-induced cytopathic effect measured at 5 days post infection by MTT assay; type: functional, cell-based; conditions: Human immunodeficiency virus 1, MT4, 120 h
[12] = test system: Human immunodeficiency virus 1; test: Antiviral activity against HIV1 harboring E138K mutant infected in human MT4 cells assessed as protection against virus-induced cytopathic effect measured at 5 days post infection by MTT assay; type: functional, cell-based; conditions: Human immunodeficiency virus 1, MT4, 120 h
[13] = test system: Human immunodeficiency virus 1; test: Antiviral activity against HIV1 harboring F227L/V106A double mutant infected in human MT4 cells assessed as protection against virus-induced cytopathic effect measured at 5 days post infection by MTT assay; type: functional, cell-based; conditions: Human immunodeficiency virus 1, MT4, 120 h
[14] = test system: Human immunodeficiency virus 1; test: Fold resistance, ratio of EC50 for HIV1 harboring L100I mutant infected in human MT4 cells to EC50 for wild-type HIV1 3B infected in human MT4 cells; type: functional
[15] = test system: Human immunodeficiency virus 1; test: Fold resistance, ratio of EC50 for HIV1 harboring K103N mutant infected in human MT4 cells to EC50 for wild-type HIV1 3B infected in human MT4 cells; type: functional
[16] = test system: Human immunodeficiency virus 1; test: Fold resistance, ratio of EC50 for HIV1 harboring Y181C mutant infected in human MT4 cells to EC50 for wild-type HIV1 3B infected in human MT4 cells; type: functional
[17] = test system: Human immunodeficiency virus 1; test: Fold resistance, ratio of EC50 for HIV1 harboring Y188L mutant infected in human MT4 cells to EC50 for wild-type HIV1 3B infected in human MT4 cells; type: functional
[18] = test system: Human immunodeficiency virus 1; test: Fold resistance, ratio of EC50 for HIV1 harboring E138K mutant infected in human MT4 cells to EC50 for wild-type HIV1 3B infected in human MT4 cells; type: functional
[19] = Inhibition of wild-type HIV1 reverse transcriptase assessed as decrease in biotin-dUTP incorporation using poly(A)/oligo(dT)15 as template/primer after 1 hr by ELISA; design: species or system Human immunodeficiency virus 1
[20] = n-Octanol/water partition coefficient, log P of the compound after 2 hrs by HPLC method; type: physicochemical
[21] = Solubility of the compound in phosphate buffer at pH 2 after 2 hrs by UV-HPLC method; type: physicochemical
[22] = Solubility of the compound in water at pH 7.4; type: physicochemical
[23] = Solubility of the compound in 0.1 N HCl at pH 2; type: physicochemical
[24] = Lipophilicity, log P of the compound; type: physicochemical; conditions: octanol/water

Row | SMILES | EC50 [1] [µM] | EC50 [2] [µM] | EC50 [3] [µM] | CC50 at 120 h [4] [µM] | selectivity ratio [5] | also measured
1 | Cc1cc(C)c(Nc2nc(NCCn3ccc(=O)[nH]c3=O)ncc2[N+](=O)[O-])c(C)c1 | 0.083 | > 3.33 | > 3.33 | ≥ 3.33 | ≥ 40 | –
2 | Cc1cc(C#N)cc(C)c1Oc1nc(Nc2ccc(C#N)cc2)nc2[nH]ccc12 | – | – | – | – | – | EC50 [6]: 0.00053 µM
3 | Cc1cc(C)cc(Oc2cc(NCCn3ccc(=O)[nH]c3=O)nc(Cl)n2)c1 | > 99.5 | – | > 99.5 | 99.5 | < 1 | –
4 | Cc1cc(C#N)cc(C)c1Oc1nc(NCCn2ccc(=O)[nH]c2=O)ncc1Cl | 0.046 | > 11.7 | > 11.7 | > 11.7 | ≥ 255 | –
5 | Cc1cc(C#N)cc(C)c1Oc1cc(N)nc(NCCn2ccc(=O)[nH]c2=O)n1 | 18.9 | > 204 | > 204 | 204 | 11 | –
6 | Cc1cc(C#N)cc(C)c1Oc1cc(Cl)nc(NCCn2ccc(=O)[nH]c2=O)n1 | 7.73 | > 20.6 | > 20.6 | 20.6 | 3 | –
7 | Cc1cc(/C=C/C#N)cc(C)c1Oc1ccnc(NCCn2ccc(=O)[nH]c2=O)n1 | 0.034 | > 309 | > 309 | > 309 | > 9100 | solubility at 2 h [7]: < 1 µg/mL
8 | Cc1cc(C=CC#N)cc(C)c1Oc1cc(NCCn2ccc(=O)[nH]c2=O)nc(Cl)n1 | 5.81 | – | > 26.2 | 26.2 | 5 | –
9 | Cc1cc(C)c(Oc2nc(NCCn3ccc(=O)[nH]c3=O)ncc2Cl)c(C)c1 | 0.0078 | > 2.49 | > 2.49 | 2.49 | 317 | –
10 | Cc1cc(/C=C/C#N)cc(C)c1Oc1nc(NCCn2ccc(=O)[nH]c2=O)ncc1Cl | 0.0056 | 23.3 | > 285 | > 285 | > 50500 | EC50 [8]: 0.43 µM; EC50 [9]: 0.086 µM; EC50 [10]: 0.15 µM; EC50 [11]: 52 µM; EC50 [12]: 0.034 µM; EC50 [13]: ≥ 96.6 µM; Ratio EC50 [14]: 77; Ratio EC50 [15]: 15; Ratio EC50 [16]: 27; Ratio EC50 [17]: 9277; Ratio EC50 [18]: 6; IC50 [19]: 1.58 µM; solubility at 2 h [7]: < 0.1 µg/mL
11 | Cc1cc(/C=C/C#N)cc(C)c1Oc1cc(N)nc(NCCn2ccc(=O)[nH]c2=O)n1 | 0.17 | > 298 | > 298 | > 298 | > 1740 | logP at 2 h [20]: 1.21; EC50 [8]: 21.9 µM; EC50 [9]: 0.53 µM; EC50 [10]: 4.82 µM; EC50 [11]: > 298 µM; EC50 [12]: 0.83 µM; EC50 [13]: > 298 µM; Ratio EC50 [14]: 129; Ratio EC50 [15]: 3; Ratio EC50 [16]: 28; Ratio EC50 [17]: >1753; Ratio EC50 [18]: 5; solubility at 2 h [7]: 0.43 µg/mL (≈ 1.03 µM); solubility at 2 h [21]: 91.7 µg/mL (≈ 219 µM)
12 | Cc1cc(C#N)cc(C)c1Oc1nc(Nc2ccc(C#N)cc2)nc(N)c1Br [ETRAVIRINE] | – | 0.0034 | – | – | – | EC50 [8]: 0.0066 µM; IC50 [19]: 1 µM; solubility [22]: < 1 µg/mL; solubility [23]: < 1 µg/mL; logP [24]: > 5
13 | Cc1cc(C)cc(Oc2nc(NCCn3ccc(=O)[nH]c3=O)ncc2Cl)c1 | 0.88 | > 322 | > 322 | > 322 | > 367 | –
14 | Cc1cc(C)c(Oc2nc(Cl)ncc2NCCn2ccc(=O)[nH]c2=O)c(C)c1 | > 2.89 | > 2.89 | > 2.89 | 2.89 | < 1 | –
15 | Cc1cc(C)c(Oc2ccnc(NCCn3ccc(=O)[nH]c3=O)n2)c(C)c1 | 0.53 | > 272 | > 272 | 272 | 515 | –
16 | Cc1cc(C)cc(Oc2ccnc(NCCn3ccc(=O)[nH]c3=O)n2)c1 | 48.8 | > 74.8 | > 74.8 | 74.8 | 2 | –
17 | Cc1cc(C)c(Nc2nc(NCCn3ccc(=O)[nH]c3=O)ncc2N)c(C)c1 | 14.9 | > 299 | > 299 | > 199 | > 20 | –
18 | Cc1cc(C#N)cc(C)c1Oc1ccnc(NCCn2ccc(=O)[nH]c2=O)n1 | 6.66 | > 35.8 | > 35.8 | 35.8 | 5 | logP at 2 h [20]: -0.11; solubility at 2 h [7]: 62.9 µg/mL (≈ 166 µM); solubility at 2 h [21]: > 100 µg/mL
19 | Cc1cc(C)c(Oc2cc(N)nc(NCCn3ccc(=O)[nH]c3=O)n2)c(C)c1 | 2.7 | > 119 | > 119 | 119 | 44 | –
20 | Cc1cc(C)cc(Oc2cc(N)nc(NCCn3ccc(=O)[nH]c3=O)n2)c1 | > 45.8 | – | > 127 | 127 | < 1 | –
21 | Cc1cc(/C=C/C#N)cc(C)c1Oc1cc(Cl)nc(NCCn2ccc(=O)[nH]c2=O)n1 | 0.12 | > 285 | > 285 | > 285 | > 2270 | –
22 | Cc1ccnc2c1NC(=O)c1cccnc1N2C1CC1 [NEVIRAPINE] | – | 0.26 | – | > 15 | – | EC50 [8]: 0.83 µM; EC50 [10]: 6.22 µM; EC50 [11]: 9.61 µM; IC50 [19]: 1.39 µM
23 | Cc1cc(C)c(Oc2cc(NCCn3ccc(=O)[nH]c3=O)nc(Cl)n2)c(C)c1 | > 42.3 | – | > 76.4 | 76.4 | ≤ 2 | –
24 | Cc1cc(C#N)cc(C)c1Oc1nc(NCCn2ccc(=O)[nH]c2=O)nc(N)c1Br | 0.034 | > 265 | > 265 | > 265 | > 7680 | –
25 | Cc1cn([C@H]2C[C@H](N=[N+]=[N-])[C@@H](CO)O2)c(=O)[nH]c1=O [ZIDOVUDINE] | – | 0.0071 | – | > 7.48 | > 1050 | EC50 [9]: 0.0083 µM; EC50 [10]: 0.0071 µM; EC50 [11]: 0.011 µM; EC50 [12]: 0.013 µM; EC50 [13]: 0.005 µM
26 | Cc1cc(C)c(Oc2cc(Cl)nc(NCCn3ccc(=O)[nH]c3=O)n2)c(C)c1 | 0.52 | > 44.1 | > 44.1 | 44.1 | 85 | –
27 | Cc1cc(C#N)cc(C)c1Oc1cc(NCCn2ccc(=O)[nH]c2=O)nc(Cl)n1 | 9.38 | > 27.9 | > 27.9 | 27.9 | 3 | –
28 | CC(C)Nc1cccnc1N1CCN(C(=O)c2cc3cc(NS(C)(=O)=O)ccc3[nH]2)CC1 [DELAVIRDINE MESYLATE] | – | 0.032 | – | 30.4 | – | EC50 [8]: 2.1 µM; EC50 [10]: 2.04 µM; EC50 [11]: 0.69 µM; EC50 [12]: 0.043 µM
29 | Cc1cc(C)cc(Oc2cc(Cl)nc(NCCn3ccc(=O)[nH]c3=O)n2)c1 | > 56.5 | – | > 56.5 | > 56.5 | > 1 | –
30 | O=C1Nc2ccc(Cl)cc2[C@@](C#CC2CC2)(C(F)(F)F)O1 [EFAVIRENZ] | – | – | – | > 6.34 | – | EC50 [8]: 0.1 µM; EC50 [10]: 0.0068 µM; EC50 [11]: 0.34 µM; EC50 [13]: 0.21 µM
